Measurements taken from PubChem BioAssay (NCI).
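Interpolation was linear, between the two tested concentrations surrounding the appropriate level; five concentrations were tested over 48 hours in 96-well plates. TGI is the concentration that stops growth completely.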

Legend:
Experiment in all cases: NCI tumour cell line growth inhibition, 48 h
HCT-15 colon = test system: HCT-15 colon
OVCAR-4 ovarian = test system: OVCAR-4 ovarian
OVCAR-3 ovarian = test system: OVCAR-3 ovarian
K-562 leukemia = test system: K-562 leukemia
SF-295 CNS = test system: SF-295 CNS
UO-31 renal = test system: UO-31 renal
MALME-3M melanoma = test system: MALME-3M melanoma
PC-3 prostate = test system: PC-3 prostate
RXF 393 renal = test system: RXF 393 renal
OVCAR-5 ovarian = test system: OVCAR-5 ovarian
NCI/ADR-RES ovarian = test system: NCI/ADR-RES ovarian
HT29 colon = test system: HT29 colon
ACHN renal = test system: ACHN renal
HL-60(TB) leukemia = test system: HL-60(TB) leukemia
M14 melanoma = test system: M14 melanoma
HCT-116 colon = test system: HCT-116 colon
SW-620 colon = test system: SW-620 colon
SNB-75 CNS = test system: SNB-75 CNS
UACC-62 melanoma = test system: UACC-62 melanoma
LOX IMVI melanoma = test system: LOX IMVI melanoma
SK-MEL-2 melanoma = test system: SK-MEL-2 melanoma
HOP-92 NSCLC = test system: HOP-92 NSCLC
SNB-19 CNS = test system: SNB-19 CNS
A498 renal = test system: A498 renal
MDA-MB-231 breast = test system: MDA-MB-231 breast
SN12C renal = test system: SN12C renal
MOLT-4 leukemia = test system: MOLT-4 leukemia
SF-539 CNS = test system: SF-539 CNS
MDA-N = test system: MDA-N
IGROV1 ovarian = test system: IGROV1 ovarian
HCC-2998 colon = test system: HCC-2998 colon
U251 CNS = test system: U251 CNS
OVCAR-8 ovarian = test system: OVCAR-8 ovarian
EKVX NSCLC = test system: EKVX NSCLC
KM12 colon = test system: KM12 colon
MDA-MB-435 = test system: MDA-MB-435
RPMI-8226 leukemia = test system: RPMI-8226 leukemia
SK-MEL-28 melanoma = test system: SK-MEL-28 melanoma
UACC-257 melanoma = test system: UACC-257 melanoma
SK-OV-3 ovarian = test system: SK-OV-3 ovarian
DU-145 prostate = test system: DU-145 prostate
TK-10 renal = test system: TK-10 renal
CAKI-1 renal = test system: CAKI-1 renal
BT-549 breast = test system: BT-549 breast
SF-268 CNS = test system: SF-268 CNS
COLO 205 colon = test system: COLO 205 colon
NCI-H522 lung = test system: NCI-H522 lung
HS 578T breast = test system: HS 578T breast
NCI-H460 lung = test system: NCI-H460 lung
SK-MEL-5 melanoma = test system: SK-MEL-5 melanoma
CCRF-CEM leukemia = test system: CCRF-CEM leukemia
MCF7 breast = test system: MCF7 breast
T-47D breast = test system: T-47D breast
A549 NSCLC = test system: A549 NSCLC
NCI-H23 lung = test system: NCI-H23 lung
HOP-62 NSCLC = test system: HOP-62 NSCLC
SR leukemia = test system: SR leukemia
786-0 renal = test system: 786-0 renal

Cc1ccc(P(c2ccc(C)cc2)c2ccc(C)cc2)cc1 was tested, and the TGI (HCT-15 colon) was > 100 µM, the TGI (OVCAR-4 ovarian) was 80.3 µM and the TGI (OVCAR-3 ovarian) was 29.5 µM. For the same molecule, the TGI (K-562 leukemia) was > 100 µM, the TGI (SF-295 CNS) was > 100 µM and the TGI (UO-31 renal) was 4.54 µM. For the same molecule, the TGI (MALME-3M melanoma) was 42.4 µM, the TGI (PC-3 prostate) was > 100 µM and the TGI (RXF 393 renal) was 30 µM. The TGI (OVCAR-5 ovarian) was 61.1 µM, the TGI (NCI/ADR-RES ovarian) was > 100 µM and the TGI (HT29 colon) was > 100 µM. The TGI (ACHN renal) was > 100 µM, the TGI (HL-60(TB) leukemia) was > 100 µM and the TGI (M14 melanoma) was 50.3 µM. For the same molecule, the TGI (HCT-116 colon) was 28.2 µM, the TGI (SW-620 colon) was > 100 µM and the TGI (SNB-75 CNS) was 49.5 µM. The TGI (UACC-62 melanoma) was 52.3 µM, the TGI (LOX IMVI melanoma) was 30.4 µM and the TGI (SK-MEL-2 melanoma) was 57.9 µM. For the same molecule, the TGI (HOP-92 NSCLC) was 20.8 µM, the TGI (SNB-19 CNS) was > 100 µM and the TGI (A498 renal) was 79.3 µM. The TGI (MDA-MB-231 breast) was 67.6 µM, the TGI (SN12C renal) was 34.3 µM and the TGI (MOLT-4 leukemia) was 44.5 µM. It also gave a TGI (SF-539 CNS) of 37.7 µM, a TGI (MDA-N) of 55.8 µM and a TGI (IGROV1 ovarian) of 53.6 µM. For the same molecule, the TGI (HCC-2998 colon) was 36 µM, the TGI (U251 CNS) was 43 µM and the TGI (OVCAR-8 ovarian) was 59.6 µM. The TGI (EKVX NSCLC) was > 100 µM, the TGI (KM12 colon) was 60.9 µM and the TGI (MDA-MB-435) was 41.1 µM. For the same molecule, the TGI (RPMI-8226 leukemia) was 34.6 µM, the TGI (SK-MEL-28 melanoma) was 56 µM and the TGI (UACC-257 melanoma) was 59.3 µM. For the same molecule, the TGI (SK-OV-3 ovarian) was 95.9 µM, the TGI (DU-145 prostate) was 40.1 µM and the TGI (TK-10 renal) was > 100 µM. For the same molecule, the TGI (CAKI-1 renal) was 98.5 µM, the TGI (BT-549 breast) was > 100 µM and the TGI (SF-268 CNS) was > 100 µM. The TGI (COLO 205 colon) was 44.6 µM, the TGI (NCI-H522 lung) was 28.2 µM and the TGI (HS 578T breast) was 57 µM. For the same molecule, the TGI (NCI-H460 lung) was 36.5 µM, the TGI (SK-MEL-5 melanoma) was 33.1 µM and the TGI (CCRF-CEM leukemia) was 46.5 µM. The TGI (MCF7 breast) was > 100 µM, the TGI (T-47D breast) was > 100 µM and the TGI (A549 NSCLC) was > 100 µM. The TGI (NCI-H23 lung) was > 100 µM.

With CN(C)c1ccc(/C=C/c2ccnc3ccc4ccccc4c23)cc1 the TGI (HCT-15 colon) was > 100 µM, the TGI (OVCAR-3 ovarian) was > 100 µM and the TGI (K-562 leukemia) was > 100 µM. For the same molecule, the TGI (HOP-62 NSCLC) was > 100 µM, the TGI (UO-31 renal) was > 100 µM and the TGI (MALME-3M melanoma) was 58.5 µM. For the same molecule, the TGI (PC-3 prostate) was > 100 µM, the TGI (RXF 393 renal) was 44.9 µM and the TGI (NCI/ADR-RES ovarian) was > 100 µM. The TGI (SR leukemia) was > 100 µM, the TGI (HT29 colon) was > 100 µM and the TGI (ACHN renal) was 57.3 µM. For the same molecule, the TGI (HL-60(TB) leukemia) was > 100 µM, the TGI (M14 melanoma) was > 100 µM and the TGI (HCT-116 colon) was > 100 µM. The TGI (SW-620 colon) was > 100 µM, the TGI (SNB-75 CNS) was 70.4 µM and the TGI (UACC-62 melanoma) was > 100 µM. The TGI (LOX IMVI melanoma) was > 100 µM, the TGI (SK-MEL-2 melanoma) was > 100 µM and the TGI (HOP-92 NSCLC) was > 100 µM. For the same molecule, the TGI (SNB-19 CNS) was > 100 µM, the TGI (A498 renal) was 69.1 µM and the TGI (MDA-MB-231 breast) was > 100 µM. For the same molecule, the TGI (SN12C renal) was > 100 µM, the TGI (MOLT-4 leukemia) was > 100 µM and the TGI (SF-539 CNS) was > 100 µM. For the same molecule, the TGI (MDA-N) was > 100 µM, the TGI (IGROV1 ovarian) was 45.8 µM and the TGI (U251 CNS) was > 100 µM. For the same molecule, the TGI (786-0 renal) was > 100 µM, the TGI (OVCAR-8 ovarian) was > 100 µM and the TGI (KM12 colon) was > 100 µM. The TGI (MDA-MB-435) was > 100 µM, the TGI (RPMI-8226 leukemia) was > 100 µM and the TGI (SK-MEL-28 melanoma) was > 100 µM. For the same molecule, the TGI (UACC-257 melanoma) was > 100 µM, the TGI (SK-OV-3 ovarian) was > 100 µM and the TGI (DU-145 prostate) was > 100 µM. The TGI (TK-10 renal) was 49.9 µM, the TGI (CAKI-1 renal) was > 100 µM and the TGI (BT-549 breast) was > 100 µM. The TGI (SF-268 CNS) was > 100 µM, the TGI (COLO 205 colon) was > 100 µM and the TGI (NCI-H522 lung) was > 100 µM. The TGI (HS 578T breast) was > 100 µM, the TGI (NCI-H460 lung) was > 100 µM and the TGI (SK-MEL-5 melanoma) was > 100 µM. The TGI (CCRF-CEM leukemia) was > 100 µM, the TGI (MCF7 breast) was > 100 µM and the TGI (T-47D breast) was > 100 µM. For the same molecule, the TGI (A549 NSCLC) was > 100 µM and the TGI (NCI-H23 lung) was > 100 µM.
